From paper PMC5041076, “Ilex kaushue and Its Bioactive Component 3,5-Dicaffeoylquinic Acid Protected Mice from Lipopolysaccharide-Induced Acute Lung Injury” (Scientific Reports, 2016)
Where two headings read alike, the source gives them in different places.

How the values were obtained:
[1] = molecular target: T1, Human neutrophil elastase (Homo sapiens, UniProt P08246); assay: Serine protease enzyme inhibition assay, HNE; type: biochemical; settings: for Inh % (HNE inhibition): at 30 M (so in the source); for selectivity of inhibitory effect among serine proteases: five serine proteases examined
T1 construct: purchased Enzo BML-SE284
T1 sequence (P08246 30-267): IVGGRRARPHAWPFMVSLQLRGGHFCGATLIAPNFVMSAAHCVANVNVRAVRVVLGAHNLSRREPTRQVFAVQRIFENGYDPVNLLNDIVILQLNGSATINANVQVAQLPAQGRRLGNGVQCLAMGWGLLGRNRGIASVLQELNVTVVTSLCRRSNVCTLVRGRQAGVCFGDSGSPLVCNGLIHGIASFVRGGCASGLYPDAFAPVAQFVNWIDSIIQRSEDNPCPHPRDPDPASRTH

[2] = system: fMLF/CB-activated neutrophils; assay: O2.- generation in fMLF/CB-activated neutrophils (ferricytochrome c reduction); type: cell-based, human; settings: for IC50 / IC50 O2^.− generation: fMLF/CB-activated human neutrophils
Protocol: (§1) All assays were performed as described previously[58],[59]. Neutrophils isolated from the blood of healthy volunteers (20–30 years old) were resuspended in a Ca^2+-free HBSS buffer (pH 7.4) at 4 °C before use. O2^.− generation was measured based on reduction of ferricytochrome c. In brief, after supplementation with 0.5 mg/ml ferricytochrome c and 1 mM Ca^2+, neutrophils were equilibrated at 37 °C for 2 min and incubated with the specified drugs for 5 min. Neutrophils were activated using 30 nM fMLF or 100 nM LTB4 for 10 min after addition of cytochalasin B (CB, 1 μg/mL) for 3 min. Changes in absorbance concomitant with reduction of ferricytochrome c at 550 nm were continuously monitored. For elastase release, neutrophils (6 × 10^5 cells/mL) were mixed with methoxysuccinyl-Ala-Ala-Pro-Val-pNA (100 μM) substrate at 37 °C for 5 min. […] Inhibition of superoxide generation and elastase release were calculated in keeping with previous reports.

[3] = system: fMLF/CB-activated neutrophils; assay: Elastase release in fMLF/CB-activated neutrophils; type: cell-based; settings: for IC50: read-out: IC50 HNE (NE activity / elastase release)
Protocol: as §1

[4] = molecular target: T2, Human cathepsin G (Homo sapiens, UniProt P08311); assay: Serine protease enzyme inhibition assay, cathepsin G; type: biochemical; settings: mean ± S.E.M. (n ≥ 3)
T2 construct: purchased Enzo BML-SE283
T2 sequence (P08311 21-255): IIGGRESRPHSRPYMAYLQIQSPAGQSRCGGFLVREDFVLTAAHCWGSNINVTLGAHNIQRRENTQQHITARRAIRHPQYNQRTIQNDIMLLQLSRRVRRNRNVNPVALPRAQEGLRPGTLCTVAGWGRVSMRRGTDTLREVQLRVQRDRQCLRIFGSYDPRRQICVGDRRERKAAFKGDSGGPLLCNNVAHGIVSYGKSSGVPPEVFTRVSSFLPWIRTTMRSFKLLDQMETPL

[5] = molecular target: T3, Human proteinase 3 (Homo sapiens, UniProt P24158); assay: Serine protease enzyme inhibition assay, proteinase 3; type: biochemical; settings: mean ± S.E.M. (n ≥ 3)
T3 construct: purchased Merk 539483
T3 sequence (P24158 28-256): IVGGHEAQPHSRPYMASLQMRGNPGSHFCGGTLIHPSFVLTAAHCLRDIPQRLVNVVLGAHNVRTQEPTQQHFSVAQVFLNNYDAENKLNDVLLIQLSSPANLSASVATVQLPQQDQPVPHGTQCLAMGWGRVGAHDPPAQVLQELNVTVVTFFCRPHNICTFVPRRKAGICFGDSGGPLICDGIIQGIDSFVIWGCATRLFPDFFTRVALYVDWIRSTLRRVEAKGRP

[6] = molecular target: T4, Bovine chymotrypsin (Bos taurus, UniProt P00766); assay: Serine protease enzyme inhibition assay, chymotrypsin; type: biochemical; settings: mean ± S.E.M. (n ≥ 3)
T4 construct: purchased Sigma-Aldrich C4129

[7] = molecular target: Human thrombin (Homo sapiens, UniProt P00734); assay: Serine protease enzyme inhibition assay, thrombin
[8] = Table S3, read-out: IC50 HNE inhibitory activity
[9] = enzyme assay, mean ± S.E.M. (n ≥ 3), read-out: IC50 HNE
[10] = fMLF/CB-activated human neutrophils
[11] = Neutrophil, fMLF/CB-activated human neutrophils
[12] = read-out: IC50 Thrombin, enzyme assay, mean ± S.E.M. (n ≥ 3)

| Structure (SMILES) | IC50 [1, 8] | Inh % (HNE inhibition) ([1]; Table S3) | IC50 ([2]; Neutrophil) | IC50 O2^.− generation [2] | IC50 ([3]; Homo sapiens, Neutrophil) | IC50 [1, 9] | selectivity of inhibitory effect among serine proteases [1] | IC50 [4] | IC50 [5] | IC50 [6] | IC50 [2] | IC50 [3, 10] | IC50 [7, 12] | IC50 HNE (NE activity / elastase release) [3, 10] | IC50 [7] | IC50 [3, 11] | efficacy relative to ursolic acid ([2]; fMLF-induced neutrophils) |
| --- | --- | --- | --- | --- | --- | --- | --- | --- | --- | --- | --- | --- | --- | --- | --- | --- | --- |
| O=C(O)C=Cc1cccc(O)c1 [Compound 3-HCA, 3-hydroxycinnamic acid, reference compound] | > 30 µM | -3.63 ± 3.91% | > 10 µM | non-active | > 10 µM |  |  |  |  |  |  |  |  |  |  |  |  |
| C[C@H]1[C@H](C)CC[C@]2(C(=O)O)CC[C@]3(C)C(=CC[C@@H]4[C@@]5(C)CC[C@H](O)C(C)(C)[C@@H]5CC[C@]43C)[C@H]12 [Compound 9, ursolic acid] |  |  | 0.99 ± 0.26 µM | good inhibitory effects | 1.07 ± 0.33 µM | 11.5 ± 1.28 µM | non-selective inhibitory effects | > 30 µM | 7.33 ± 0.65 µM | 6.06 ± 0.05 µM |  |  |  | good inhibitory effects | 6.37 ± 0.6 µM |  |  |
| O=C(/C=C/c1ccc(O)c(O)c1)O[C@@H]1C[C@](O)(C(=O)O)C[C@@H](O)[C@H]1O [Compound 3, Chlorogenic acid] |  | -4.76 ± 3.36% | 2.56 ± 1.06 µM |  |  | > 30 µM |  | > 30 µM | > 30 µM | > 30 µM |  |  |  |  | > 30 µM | > 10 µM |  |
| N#C/C=C1/C=C[C@@H](O)C[C@H]1O[C@@H]1O[C@H](CO)[C@@H](O)[C@H](O)[C@H]1O [Compound 18, menisdaurin] |  |  |  |  |  | > 30 µM |  | > 30 µM | > 30 µM | > 30 µM | > 10 µM | > 10 µM | > 30 µM |  |  |  |  |
| N#CC=C1C=CC(O)CC1OC1OC(CO)C(O)C(O)C1O (stereo not drawn) [Compound 19, menisdaurin F] |  |  | > 10 µM |  | > 10 µM | > 30 µM |  | > 30 µM | > 30 µM | > 30 µM |  |  |  |  | > 30 µM |  |  |
| CC1=C2C3=CCC4[C@@]5(C)CC[C@H](O)C(C)(C)C5CC[C@@]4(C)[C@]3(C)CC[C@@]2(C(=O)O)CC[C@H]1C (stereo partly drawn) [Compound 15-1, randialic acid B] |  |  | 0.14 ± 0.09 µM | good inhibitory effects |  | > 30 µM |  | > 30 µM | 17.44 ± 0.16 µM | 16.98 ± 0.1 µM |  |  |  | good inhibitory effects | 24.9 ± 1.33 µM | 0.06 ± 0.01 µM | 5 fold |
| O=C(/C=C/c1ccc(O)c(O)c1)O[C@H]1[C@H](O)C[C@](O)(C(=O)O)C[C@H]1OC(=O)/C=C/c1ccc(O)c(O)c1 [Compound 4, 3,4-DCQA] |  | 9.91 ± 0.99% |  |  |  | > 30 µM |  | > 30 µM | > 30 µM | > 30 µM | 1.7 ± 0.28 µM | > 10 µM | > 30 µM |  |  |  |  |
| O=C(C=Cc1ccc(O)c(O)c1)OC1CC(O)(C(=O)O)CC(O)C1O (stereo not drawn) [Compound 1] |  | -2.99 ± 1.35% |  |  |  | > 30 µM |  | > 30 µM | > 30 µM | > 30 µM | 1.54 ± 0.29 µM | > 10 µM | > 30 µM |  |  |  |  |
| O=C(C=Cc1ccc(O)c(O)c1)OC1C(O)CC(O)(C(=O)O)CC1O (stereo not drawn) [Compound 2] |  | -3.43 ± 4.85% |  |  |  | > 30 µM |  | > 30 µM | > 30 µM | > 30 µM | 2.81 ± 1 µM | > 10 µM | > 30 µM |  |  |  |  |
| C=C1C2=C3C=C[C@@H]4[C@@]5(C)CC[C@H](O)C(C)(C)[C@@H]5CC[C@@]4(C)[C@]3(C)CC[C@@]23CC[C@]1(C)OC3=O [Compound 11-2] |  |  |  |  |  | 8.55 ± 1.77 µM | non-selective inhibitory effects | > 30 µM | 1.99 ± 0.25 µM | 6.04 ± 0.29 µM | > 10 µM | > 10 µM | 2.98 ± 0.35 µM |  |  |  |  |
| NCCc1ccc(S(=O)(=O)F)cc1 [AEBSF, 4-(2-aminoethyl)-benzenesulphonyl fluoride, reference compound] |  |  |  |  |  |  |  |  |  |  |  |  |  |  | 251 ± 8.78 µM |  |  |
| C[C@@H]1O[C@@H](O[C@H]2[C@H](O[C@H]3CC[C@]4(C)[C@H]5C=CC6=C7[C@]8(CC[C@](C)(OC8=O)[C@@]7(C)O)CC[C@@]6(C)[C@]5(C)CC[C@H]4C3(C)C)OC[C@H](O)[C@@H]2O[C@@H]2O[C@H](CO)[C@@H](O)[C@H](O)[C@H]2O)[C@H](O)[C@H](O)[C@H]1O [Compound 11] |  |  |  |  |  | > 30 µM |  | > 30 µM | > 30 µM | > 30 µM | > 10 µM | > 10 µM | > 30 µM |  |  |  |  |
| O=C(O)/C=C/c1ccc(O)c(O)c1 [CA, caffeic acid, reference compound] | > 30 µM |  | 1.42 ± 0.02 µM | potently inhibit | > 10 µM |  |  |  |  |  |  |  |  |  |  |  |  |
| O=C(O)c1cc(O)c(O)c(O)c1 [THBA, 3,4,5-trihyroxybenzoic acid, reference compound] |  |  |  | potently inhibit |  |  |  |  |  |  | 1.14 ± 0.08 µM | > 10 µM |  |  |  |  |  |

More lines, main results first:

| IC50 [1, 8] | Inh % (HNE inhibition) ([1]; Table S3) | IC50 ([2]; Neutrophil) | IC50 O2^.− generation [2] | IC50 ([3]; Homo sapiens, Neutrophil) | IC50 [1, 9] | selectivity of inhibitory effect among serine proteases [1] | IC50 [4] | IC50 [5] | IC50 [6] | IC50 [2] | IC50 [3, 10] | IC50 [7, 12] | Structure (SMILES) | IC50 HNE (NE activity / elastase release) [3, 10] | IC50 [7] | IC50 [3, 11] | efficacy relative to ursolic acid ([2]; fMLF-induced neutrophils) |
| --- | --- | --- | --- | --- | --- | --- | --- | --- | --- | --- | --- | --- | --- | --- | --- | --- | --- |
| > 30 µM | 0.06 ± 4.79% |  | non-active |  |  |  |  |  |  | > 10 µM | > 10 µM |  | COc1cc(/C=C/C(=O)O)ccc1O [FA, ferulic acid, reference compound] |  |  |  |  |
|  |  | > 10 µM |  | > 10 µM |  |  |  |  |  |  |  |  | O=C(O)[C@]1(O)C[C@@H](O)[C@@H](O)[C@H](O)C1 [QA, quinic acid] |  |  |  |  |
|  |  |  |  |  | > 30 µM |  | > 30 µM | > 30 µM | > 30 µM | 4.77 ± 0.4 µM | 2.84 ± 1.02 µM | > 30 µM | CC1(C)CC[C@]2(C(=O)O)CC[C@]3(C)C(=CC[C@@H]4[C@@]5(C)CC[C@H](O)C(C)(C)[C@@H]5CC[C@]43C)[C@@H]2[C@@H]1O [Compound 14-1] |  |  |  |  |
|  |  |  |  |  | > 30 µM |  | > 30 µM | > 30 µM | > 30 µM | > 10 µM | 7.99 ± 1.18 µM | > 30 µM | C[C@@H]1O[C@@H](O[C@H]2[C@H](OC(=O)[C@]34CC[C@@H](C)[C@@](C)(O)[C@H]3C3=CC[C@@H]5[C@@]6(C)CC[C@H](O[C@@H]7OC[C@H](O)[C@H](O[C@@H]8O[C@H](CO)[C@@H](O)[C@H](O)[C@H]8O)[C@H]7O[C@@H]7O[C@@H](C)[C@H](O)[C@@H](O)[C@H]7O)C(C)(C)[C@@H]6CC[C@@]5(C)[C@]3(C)CC4)O[C@H](CO)[C@@H](O)[C@@H]2O)[C@H](O)[C@H](O)[C@H]1O [Compound 15] |  |  |  |  |
| > 30 µM | -4.00 ± 3.42% | > 10 µM | non-active | > 10 µM |  |  |  |  |  |  |  |  | O=C(O)/C=C/c1ccc(O)cc1 [p-CA, p-coumaric acid, reference compound] |  |  |  |  |
|  |  |  |  |  |  |  |  | 0.56 ± 0.06 µM |  |  |  |  | CC(C)(C)C(=O)Oc1ccc(S(=O)(=O)Nc2ccccc2C(=O)NCC(=O)O)cc1 [Elaspol, reference compound] |  |  |  |  |
| > 30 µM | 10.58 ± 4.03% |  | potently inhibit |  |  |  |  |  |  | 1.29 ± 0.09 µM | > 10 µM |  | O=C(/C=C/c1ccc(O)c(O)c1)O[C@H](Cc1ccc(O)c(O)c1)C(=O)O [RA, rosaminiric acid, reference compound] |  |  |  |  |
